Assay results taken from ChEMBL document CHEMBL1126630, “Adenosine-5'-carboxaldehyde: a potent inhibitor of S-adenosyl-L-homocysteine hydrolase” (J Med Chem, 1993).

What was measured:
Adenosylhomocysteinase = biological target: T1, Adenosylhomocysteinase (Rattus norvegicus, UniProt P10760); test: Inhibitory activity against recombinant rat liver S-adenosyl-homocysteine hydrolase
T1 sequence (P10760 whole entry): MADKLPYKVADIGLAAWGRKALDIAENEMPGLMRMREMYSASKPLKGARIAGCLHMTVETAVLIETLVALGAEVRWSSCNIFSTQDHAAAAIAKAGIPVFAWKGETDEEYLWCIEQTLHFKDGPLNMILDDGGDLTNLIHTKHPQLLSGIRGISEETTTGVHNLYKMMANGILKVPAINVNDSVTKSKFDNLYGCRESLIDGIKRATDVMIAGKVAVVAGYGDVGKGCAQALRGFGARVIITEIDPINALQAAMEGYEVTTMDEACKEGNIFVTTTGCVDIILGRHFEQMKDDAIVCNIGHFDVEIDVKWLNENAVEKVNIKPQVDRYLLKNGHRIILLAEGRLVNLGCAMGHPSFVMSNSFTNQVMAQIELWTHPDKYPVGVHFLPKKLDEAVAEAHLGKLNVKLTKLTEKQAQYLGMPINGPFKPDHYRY

[1] = biological target: T2, Adenosylhomocysteinase (Rattus norvegicus) (UniProt P10760)
T2 sequence (whole entry): T1 sequence (P10760 whole entry)
Description: Rate constant for recombinant rat liver S-adenosyl-homocysteine hydrolase inactivation

Row | SMILES | Ki (Adenosylhomocysteinase) [nM] | k2 [1] [min⁻¹]
1 | Nc1ncnc2c1ncn2[C@@H]1O[C@@H](C=O)[C@@H](O)[C@H]1O | 39 | 0.65
2 | Nc1ncnc2c1ncn2[C@@H]1O/C(=C\F)[C@H](O)[C@@H]1O | 39 | 0.082
3 | Nc1ncnc2c1ncn2[C@@H]1O/C(=C/F)[C@H](O)[C@@H]1O | 40 | 0.05
4 | Nc1ncnc2c1ncn2[C@@H]1O[C@H](C=O)[C@@H](O)[C@H]1O | 43 | 0.22
